Results taken from US4076931A, “Derivatives of an antibiotic XK-62-2 and the process for the production thereof” (Abbott Laboratories, priority 1974, dated 1978).
Converted amounts (≈) assume the structure as drawn. Like-named read-outs stand apart in the source and are kept apart here.

Columns and labels:
Assay type in all cases: cell-based
[1] = test system: Escherichia coli ATCC 26; experiment: Minimum inhibitory concentration by agar dilution method, Escherichia coli ATCC 26
Text: (§1) Table 1 illustrates minimum inhibitory concentration of 1-N-(α-hydroxy-δ-aminovaleryl)XK-62-2 and 1-N-(α-hydroxy-ε- aminocaproyl)XK-62-2 against various Gram-negative and Gram-positive bacteria determined by agar dilution method.

[2] = test system: Salmonella typhosa ATCC 9922; experiment: Minimum inhibitory concentration by agar dilution method, Salmonella typhosa ATCC 9922; details: for MIC: Salmonella enterica, read-out: Minimum Inhibitory Concentration
Text: as §1

[3] = test system: Staphylococcus aureus ATCC 6538P; experiment: Minimum inhibitory concentration by agar dilution method, Staphylococcus aureus ATCC 6538P; details: for MIC: ATCC6538P
Text: as §1

[4] = test system: Escherichia coli strains having R factors; experiment: Antibacterial activity against Escherichia coli strains having R factors; details: resistant to known aminoglycoside antibiotics, in words
Text: as §1

[5] = test system: Klebsiella penumoniae ATCC 10031; experiment: Minimum inhibitory concentration by agar dilution method, Klebsiella penumoniae ATCC 10031; details: for MIC: ATCC10031
Text: as §1

[6] = test system: Escherichia coli KY 8327; experiment: Minimum inhibitory concentration by agar dilution method, Escherichia coli KY 8327; details: for antibacterial activity: Escherichia coli KY 8327, resistant to kanamycins and gentamicins, in words; for MIC: KY8327
Text: as §1
(§2) In the above Table 1, Escherichia coli KY 8327 and KY 8348 respectively produce adenyltransferase and acetyltransferase intracellularly; the former enzyme inactivates kanamycins and gentamicins by adenylation, and the latter inactivates gentamicins by acetylation.

[7] = test system: Pseudomonas aeruginosa BMH No. 1; experiment: Minimum inhibitory concentration by agar dilution method, Pseudomonas aeruginosa BMH No. 1; details: for MIC: BMHNO.1
Text: as §1

[8] = test system: Escherichia coli KY 8348; experiment: Minimum inhibitory concentration by agar dilution method, Escherichia coli KY 8348; details: for antibacterial activity: Escherichia coli KY 8348, resistant to known aminoglycoside antibiotics, in words; for MIC: KY8348
Text: as §1, §2

[9] = test system: Proteus vulgaris ATCC 6897; experiment: Minimum inhibitory concentration by agar dilution method, Proteus vulgaris ATCC 6897
Text: as §1

[10] = test system: Bacillus subtilis No. 10707; experiment: Minimum inhibitory concentration by agar dilution method, Bacillus subtilis No. 10707
Text: as §1

[11] = test system: Shigella sonnel ATCC 9290; experiment: Minimum inhibitory concentration by agar dilution method, Shigella sonnel ATCC 9290; details: for MIC: Shigella, ATCC9290, read-out: Minimum Inhibitory Concentration
Text: as §1

[12] = Escherichia coli KY 8327 (produces adenyltransferase), agar dilution method
[13] = Escherichia coli KY 8348 (produces acetyltransferase), agar dilution method

Row | Compound | antibacterial activity [4] | antibacterial activity [6] | antibacterial activity [8] | MIC [2] | MIC [3] | MIC [5] | MIC [6, 12] | MIC [7] | MIC [8, 13] | MIC [10] | MIC [11] | also measured
1 | 1-N-[L-(-)-α-hydroxy-ε-aminocaproyl]XK-62-2 | strong antibacterial activity | very strong antibacterial activity | very strong antibacterial activity | – | – | – | – | – | – | – | – | Minimum Inhibitory Concentration ([1]; Escherichia coli ATCC 26, agar dilution method): 0.13 µg/mL; Minimum Inhibitory Concentration ([2]; Salmonella typhosa ATCC 9922, agar dilution method): 0.065 µg/mL; Minimum Inhibitory Concentration [3]: 0.033 µg/mL; Minimum Inhibitory Concentration [5]: 0.033 µg/mL; Minimum Inhibitory Concentration [6, 12]: 0.013 µg/mL; Minimum Inhibitory Concentration [7]: 4.17 µg/mL; Minimum Inhibitory Concentration [8, 13]: 0.065 µg/mL; Minimum Inhibitory Concentration ([9]; Proteus vulgaris ATCC 6897, agar dilution method): 0.26 µg/mL; Minimum Inhibitory Concentration [10]: 0.008 µg/mL; Minimum Inhibitory Concentration ([11]; Shigella sonnel ATCC 9290, agar dilution method): 0.26 µg/mL
2 | CNC[C@@H]1CC[C@@H](N)[C@@H](O[C@H]2[C@H](O)[C@@H](O[C@H]3OC[C@](C)(O)[C@H](NC)[C@H]3O)[C@H](NC(=O)[C@@H](O)CCCN)C[C@@H]2N)O1 [1-N-[L-(-)-α-hydroxy-δ-aminovaleryl]XK-62-2] | strong antibacterial activity | very strong antibacterial activity | very strong antibacterial activity | 0.016 µg/mL (≈ 0.0276 µM) | 0.008 µg/mL (≈ 0.0138 µM) | 0.008 µg/mL (≈ 0.0138 µM) | 0.065 µg/mL (≈ 0.112 µM) | 0.52 µg/mL (≈ 0.899 µM) | 0.033 µg/mL (≈ 0.057 µM) | < 0.004 µg/mL | 0.065 µg/mL (≈ 0.112 µM) | MIC ([1]; ATCC26, Escherichia coli ATCC 26, agar dilution method, read-out: Minimum Inhibitory Concentration): 0.033 µg/mL (≈ 0.057 µM); MIC ([9]; ATCC6897, Proteus vulgaris ATCC 6897, agar dilution method, read-out: Minimum Inhibitory Concentration): 0.065 µg/mL (≈ 0.112 µM)
3 | CNC[C@@H]1CC[C@@H](N)[C@@H](O[C@H]2[C@H](O)[C@@H](O[C@H]3OC[C@](C)(O)[C@H](NC)[C@H]3O)[C@H](N)C[C@@H]2N)O1 [XK-62-2] | – | – | – | 0.008 µg/mL (≈ 0.0173 µM) | < 0.004 µg/mL | < 0.004 µg/mL | 1.04 µg/mL (≈ 2.24 µM) | 0.13 µg/mL (≈ 0.28 µM) | 1.04 µg/mL (≈ 2.24 µM) | < 0.004 µg/mL | 0.033 µg/mL (≈ 0.0712 µM) | MIC ([1]; Escherichia coli, ATCC26, read-out: Minimum Inhibitory Concentration): 0.016 µg/mL (≈ 0.0345 µM); MIC ([9]; Proteus vulgaris, ATCC6897, read-out: Minimum Inhibitory Concentration): 0.016 µg/mL (≈ 0.0345 µM)
